Consider 18 compounds from article PMC4791841, “Nanomolar Inhibitors of Trypanosoma brucei RNA Triphosphatase” (mBio, 2016).

Where two headings read alike, the source gives them in different places.

The target of one experiment is T1, MimiCE (Acanthamoeba polyphaga mimivirus, UniProt Q5UQX1).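 Also: mimivirus capping enzyme triphosphatase ATPase reaction, radiolabeled ATP hydrolysis to Pi quantified by TLC after 10 min, normalized to no-inhibitor control with 5% DMSO.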
T1 construct: the N-terminal RTPase domain (amino acids [aa] 1 to 237) of mimivirus capping enzyme (MimiCE); HisSmt3 (N, cleaved yes); made in house; host or cells: Escherichia coli
T1 sequence (Q5UQX1 1-237): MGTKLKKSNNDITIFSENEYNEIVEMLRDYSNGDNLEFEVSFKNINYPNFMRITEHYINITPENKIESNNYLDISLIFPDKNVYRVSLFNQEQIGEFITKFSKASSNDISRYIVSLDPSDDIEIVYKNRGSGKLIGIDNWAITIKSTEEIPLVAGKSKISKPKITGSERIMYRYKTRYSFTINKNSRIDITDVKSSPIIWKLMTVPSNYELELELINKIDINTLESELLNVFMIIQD
The experiment is described as follows: biochemical. The class given is biochemical. The conditions noted are these: for IC50/IC50 TbCet1, MimiCE: ratio in parentheses.

In another experiment the target is T2, CthTTM (Acetivibrio thermocellus, UniProt A3DIJ8).
T2 sequence (A3DIJ8 1-156): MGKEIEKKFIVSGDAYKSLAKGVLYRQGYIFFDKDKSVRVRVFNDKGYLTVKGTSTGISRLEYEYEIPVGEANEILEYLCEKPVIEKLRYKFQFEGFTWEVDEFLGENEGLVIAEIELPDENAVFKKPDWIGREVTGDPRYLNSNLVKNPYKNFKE
The experiment can be described thus: TLC assay for 32Pi release from [γ-32P]ATP, CthTTM. The class given is biochemical, Clostridium thermocellum. The conditions noted are these: for IC50/IC50 TbCet1, CthTTM: ratio in parentheses.

The next experiment concerns the target T3, SceCet1 (Saccharomyces cerevisiae, UniProt O13297).
T3 construct: C-terminal catalytic domain (aa 241 to 539) of S. cerevisiae RTPase (SceCet1); made in house; host or cells: Escherichia coli
The experiment is described as follows: TLC assay for 32Pi release from [γ-32P]ATP, SceCet1. Type of experiment: biochemical. The conditions noted are these: for IC50/IC50 TbCet1, SceCet1: ratio in parentheses.

The target in the next experiment is T4, Lef4 (Autographa californica nuclear polyhedrosis virus, UniProt P41477).
T4 construct: the N-terminal RTPase domain (aa 1 to 236) of AcNPV Lef4 capping enzyme; HisSmt3 (N, cleaved yes); made in house; host or cells: Escherichia coli
T4 sequence (P41477 1-236): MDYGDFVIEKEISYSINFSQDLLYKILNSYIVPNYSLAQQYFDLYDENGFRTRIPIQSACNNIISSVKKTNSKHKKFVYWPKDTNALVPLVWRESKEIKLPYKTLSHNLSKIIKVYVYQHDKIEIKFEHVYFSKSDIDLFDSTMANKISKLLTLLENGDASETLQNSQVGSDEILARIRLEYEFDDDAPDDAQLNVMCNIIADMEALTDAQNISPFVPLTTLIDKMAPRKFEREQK
The experiment can be described thus: TLC assay for 32Pi release from [γ-32P]ATP, Lef4.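 As to all read-outs here: Lef4 RNA triphosphatase cleaving radiolabelled ATP over 10 min at 37°C, hydrolysis set relative to inhibitor-free 5% DMSO controls, comparisons made against TbCet1 tested the same way.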 Type of experiment: biochemical, Autographa californica nucleopolyhedrovirus (AcNPV). The conditions noted are these: for IC50: 50 nM Lef4, 37°C, read-out: IC50 Lef4; for IC50/IC50 TbCet1, Lef4: ratio in parentheses.

The target in another experiment is T5, TbCet1 (Trypanosoma brucei brucei, UniProt Q582T2).
T5 sequence (Q582T2 1-253): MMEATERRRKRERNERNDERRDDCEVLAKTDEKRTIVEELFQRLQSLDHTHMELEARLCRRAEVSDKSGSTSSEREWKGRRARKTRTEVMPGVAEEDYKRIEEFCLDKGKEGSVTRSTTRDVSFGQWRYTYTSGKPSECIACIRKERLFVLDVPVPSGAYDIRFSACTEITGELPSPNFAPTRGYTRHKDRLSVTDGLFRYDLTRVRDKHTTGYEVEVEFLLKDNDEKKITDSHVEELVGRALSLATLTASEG
The experiment can be described thus: TLC assay for 32Pi release from [γ-32P]ATP, TbCet1. The conditions noted are these: for IC50: 2.2 nM TbCet1, 0.2 mM ATP, 2 mM Mn2+, 10 min 37°C; for inhibition of TbCet1 (in words): 32P phosphate release assay.

Setting [1] is: read-out: IC50 MimiCE, 7 nM MimiCE, 37°C.
The mark [2] stands for this setting: 500 nM CthTTM, 37°C, read-out: IC50 CthTTM.
[3] abbreviates: 25 nM SceCet1, 30°C, read-out: IC50 SceCet1.
Where [4] appears, read: read-out: IC50 CthTTM, 500 nM CthTTM, 37°C.
Where [5] appears, read: read-out: IC50 SceCet1, 25 nM SceCet1, 30°C.
Setting [6] is: read-out: IC50 TbCet1 by 32P assay.

Usually IC50 stands for the point on the concentration scale where inhibition reaches its midpoint.

T3 sequence (O13297 241-539): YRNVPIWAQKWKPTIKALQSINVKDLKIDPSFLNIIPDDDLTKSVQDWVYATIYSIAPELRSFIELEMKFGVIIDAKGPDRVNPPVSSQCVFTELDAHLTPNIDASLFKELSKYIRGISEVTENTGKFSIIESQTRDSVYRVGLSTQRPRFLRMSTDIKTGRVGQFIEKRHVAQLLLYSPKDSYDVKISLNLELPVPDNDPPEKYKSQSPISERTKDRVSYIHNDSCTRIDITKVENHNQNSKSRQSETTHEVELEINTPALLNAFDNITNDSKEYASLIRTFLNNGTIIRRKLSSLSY

As for `O=C(/C=C/c1ccc(O)c(O)c1)OC1[C@H](OC(=O)/C=C/c2ccc(O)c(O)c2)CC(O)(C(=O)O)C[C@H]1OC(=O)/C=C/c1ccc(O)c(O)c1` (stereo in doubt) [Compound 1D, 3,4,5-Tricaffeoylquinic acid], on MimiCE, the “fold lower potency against MimiCE than against TbCet1” value was determined as 107 fold and the “IC50/IC50 TbCet1, MimiCE” value is on record as 107. The half-inhibitory concentration (IC50) at MimiCE (setting [1]) came to 16 µM. For the same compound, at CthTTM, the “fold lower potency against CthTTM than against TbCet1” value is on record as 1,100 fold and the “IC50/IC50 TbCet1, CthTTM” value was 1,067. Also, on CthTTM (setting [2]), the IC50 amounted to 160 µM. On SceCet1, the “fold lower potency against SceCet1 than against TbCet1” value was found to be 67 fold and the “IC50/IC50 TbCet1, SceCet1” value worked out at 67. For the same compound, the IC50 at SceCet1 (setting [3]) came out at 10 µM. Also, on Lef4, the “fold lower potency against Lef4 than against TbCet1” value is on record as 48 fold; the IC50 came to 7.2 µM; the “IC50/IC50 TbCet1, Lef4” value was found to be 48.

Take `O=C(Oc1cc(C(=O)O[C@@H]2C[C@@](O)(C(=O)O)C[C@@H](O)[C@@H]2O)cc(O)c1O)c1cc(O)c(O)c(O)c1` [Compound 1C, 5-galloyl-galloylquinic acid]: the 50% inhibitory concentration (IC50) on CthTTM (setting [4]) is more than 500 µM; at SceCet1 (setting [5]), more than 500 µM; at Lef4, 75 µM. Also, at Lef4, the “fold lower potency against Lef4 than against TbCet1” value amounted to 680 fold. The “IC50/IC50 TbCet1, Lef4” value at Lef4 is 682. Further, on TbCet1, the “fold more potent as TbCet1 inhibitor than 5-galloylquinic acid (compound 1O)” value is recorded as 1,100 fold.

Regarding `O=C(/C=C/c1ccc(O)c(O)c1)O[C@@H]1C[C@](OC(=O)/C=C/c2ccc(O)c(O)c2)(C(=O)O)C[C@@H](OC(=O)/C=C/c2ccc(O)c(O)c2)[C@H]1O` [Compound 1E, 1,3,5-tricaffeoylquinic acid], the IC50 at MimiCE was 8.4 µM; at CthTTM (setting [2]) it was 33 µM; on SceCet1 (setting [3]), 29 µM; at Lef4, 5.6 µM; against TbCet1 (IC50 TbCet1 by 32P assay), 0.19 µM. In addition, at MimiCE, the “IC50/IC50 TbCet1, MimiCE” value amounted to 44. Besides, the “IC50/IC50 TbCet1, CthTTM” value on CthTTM was 174. At SceCet1, the “IC50/IC50 TbCet1, SceCet1” value turned out to be 153. In addition, on Lef4, the “IC50/IC50 TbCet1, Lef4” value was determined as 29.

In the case of `O=C(Oc1cc(C(=O)O[C@@H]2C[C@@](O)(C(=O)O)C[C@@H](OC(=O)c3cc(O)c(O)c(O)c3)[C@@H]2O)cc(O)c1O)c1cc(O)c(O)c(O)c1` [Compound 1F, 3-galloyl,5-galloyl-galloylquinic acid], the “IC50/IC50 TbCet1, MimiCE” value at MimiCE is given as 15. In addition, the IC50 at MimiCE (setting [1]) was 3.4 µM; at CthTTM (setting [4]), 21 µM; at SceCet1 (setting [5]), more than 500 µM; at Lef4, 33 µM. Also, the “IC50/IC50 TbCet1, CthTTM” value on CthTTM turned out to be 95. For the same compound, the “IC50/IC50 TbCet1, Lef4” value on Lef4 was 150.

On to `O=C(/C=C/c1ccc(O)c(O)c1)O[C@@H]1C[C@](OC(=O)/C=C/c2ccc(O)c(O)c2)(C(=O)O)C[C@@H](O)[C@H]1O` [Compound 1G, 1,3-dicaffeoylquinic acid], for which the “IC50/IC50 TbCet1, MimiCE” value at MimiCE is on record as 11. Besides, the IC50 is 3.7 µM at MimiCE (setting [1]), 55 µM at CthTTM (setting [2]), more than 500 µM at SceCet1 (setting [3]) and 22 µM on Lef4. Also, the “IC50/IC50 TbCet1, CthTTM” value on CthTTM came out at 162. In addition, on Lef4, the “IC50/IC50 TbCet1, Lef4” value came out at 65.

`O=C(/C=C/c1ccc(O)cc1)O[C@@H]1[C@H](O)C[C@@](O)(C(=O)O)C[C@H]1OC(=O)/C=C/c1ccc(O)cc1` [Compound 1H, 3,4-dicoumaroylquinic acid]: at MimiCE, the “IC50/IC50 TbCet1, MimiCE” value worked out at 40. Moreover, the IC50 is 52 µM on MimiCE (setting [1]); more than 500 µM at CthTTM (setting [4]); more than 500 µM on SceCet1 (setting [5]); 140 µM on Lef4; 1.3 µM on TbCet1 (setting [6]). Moreover, the “IC50/IC50 TbCet1, Lef4” value at Lef4 turned out to be 108.

Regarding `O=C(/C=C/c1ccccc1)O[C@@H]1C[C@](OC(=O)/C=C/c2ccccc2)(C(=O)O)C[C@@H](OC(=O)/C=C/c2ccccc2)[C@H]1OC(=O)/C=C/c1ccccc1` [Compound 1I, tetracinnamoylquinic acid], the IC50 was 17 µM against MimiCE; 17 µM against CthTTM; more than 500 µM at SceCet1; 6 µM on Lef4; 1.6 µM against TbCet1 (IC50 TbCet1 by 32P assay). Besides, on MimiCE, the “IC50/IC50 TbCet1, MimiCE” value is recorded as 11. For the same compound, on CthTTM, the “IC50/IC50 TbCet1, CthTTM” value was 11. Further, on Lef4, the “IC50/IC50 TbCet1, Lef4” value was 4. Besides, the “fold less potent as TbCet1 inhibitor than tetracaffeoylquinic acid (compound 1A)” value at TbCet1 was 120 fold.

With `COc1ccc(/C=C/C(=O)O[C@@H]2C[C@@](O)(C(=O)O)C[C@@H](O)[C@@H]2O)cc1O` [Compound 1J, 5-p-feruoylquinic acid], the IC50 on CthTTM (setting [2]) was more than 500 µM; at SceCet1 (setting [3]), more than 500 µM; on TbCet1 (setting [6]), 2.4 µM.

With `O=C(OC1[C@H](OC(=O)c2ccccc2)CC(OC(=O)c2ccccc2)(C(=O)O)C[C@H]1OC(=O)c1ccccc1)c1ccccc1` (stereo partly drawn) [Compound 1K], the IC50 on MimiCE was 20 µM; against CthTTM, 72 µM; against SceCet1, more than 500 µM; on Lef4, 46 µM; against TbCet1 (IC50 TbCet1 by 32P assay) it was 5.8 µM. Further, the “IC50/IC50 TbCet1, MimiCE” value at MimiCE came out at 3. At CthTTM, the “IC50/IC50 TbCet1, CthTTM” value was 12. On Lef4, the “IC50/IC50 TbCet1, Lef4” value was 8.

On to `COc1cc(/C=C/C(=O)O[C@@H]2C[C@](O)(C(=O)O)C[C@@H](O)[C@H]2O)ccc1O` [Compound 1L, 5-feruoylquinic acid], for which the IC50 was more than 500 µM at MimiCE (7 nM MimiCE, 37°C, read-out: IC50 MimiCE); more than 500 µM on CthTTM (setting [2]); more than 500 µM at SceCet1 (setting [3]); more than 500 µM at Lef4; 12 µM on TbCet1 (setting [6]).

Turning to `O=C(/C=C/c1ccc(O)cc1)O[C@@H]1CC(O)(C(=O)O)C[C@@H](OC(=O)/C=C/c2ccc(O)cc2)C1O` (stereo partly drawn) [Compound 1M, 3,5-dicoumaroylquinic acid], the IC50 at MimiCE was more than 500 µM; at CthTTM it was more than 500 µM; against SceCet1, more than 500 µM; at Lef4, more than 500 µM; on TbCet1 (IC50 TbCet1 by 32P assay), 24 µM. Besides, at TbCet1, the “fold drop in potency of TbCet1 inhibition versus 3,5-dicaffeoylquinic acid (compound 1B)” value came to 340 fold.

Turning to `COc1cc(C=CC(=O)OC2[C@H](O)CC(O)(C(=O)O)C[C@H]2O)ccc1O` (stereo partly drawn) [Compound 1P, 4-feruoylquinic acid], the “fold less effective against TbCet1 than 5-feruoylquinic acid” value at TbCet1 worked out at 13 fold. Moreover, the IC50 on TbCet1 (setting [6]) was found to be 160 µM.

Regarding `COc1cc(/C=C/C(=O)OC2(C(=O)O)C[C@@H](O)C(O)[C@H](O)C2)ccc1O` (stereo partly drawn) [Compound 1R, 1-feruoylquinic acid], the “inhibition of TbCet1 (in words)” value against TbCet1 was “inactive”. In addition, the IC50 on TbCet1 (setting [6]) was more than 500 µM.

With `O=C(/C=C/c1ccc(O)c(O)c1)O[C@@H]1C[C@@](O)(C(=O)O)C[C@@H](O)[C@@H]1O` [Compound 1T, 5-caffeoylquinic acid], the IC50 on TbCet1 (setting [6]) was more than 500 µM.

Turning to `O=C(C=Cc1ccccc1)OC1C=C(C(=O)O)CC(OC(=O)C=Cc2ccccc2)C1O` (stereo not drawn) [Compound 6D, 3,5-dicannamolylshikimate], the “inhibition of TbCet1 (in words)” value at TbCet1 is recorded as “did not inhibit”. The IC50 on TbCet1 (setting [6]) was more than 500 µM.

For `O=C(/C=C/c1ccc(O)c(O)c1)O[C@@H]1CC(C(=O)O)=C[C@@H](O)[C@H]1O` [Compound 6E, 5-caffeoylshikimate], the “inhibition of TbCet1 (in words)” value on TbCet1 was “did not inhibit”. Also, at TbCet1 (setting [6]), the IC50 is more than 500 µM.

Regarding `O=C(O)[C@]1(O)C[C@@H](O)[C@@H](O)[C@H](O)C1` [Quinic acid, reference compound], the “inhibition of TbCet1 (in words)” value against TbCet1 is on record as “no inhibition”.

Consider `O=C(O)c1cc(O)c(O)c(O)c1` [gallic acid, 3,4,5-trihydroxybenzoic acid, reference compound], for which, at TbCet1, the “inhibition of TbCet1 (in words)” value is “no inhibition”.
